Patent US20220041641A1, “QUATERNARY AMMONIUM SALTS AS INHIBITORS OF TRIMETHYLAMINE PRODUCTION” (Senda Biosciences, Inc., priority 2018, published 2022)
pIC50: −log10 of the molar value. Structures can show the parent of a compound that is named as a salt.

biological target: CutC from Proteus mirabilis (Proteus mirabilis, UniProt B4EYG1); assay: Cell-based assay for TMA production from a native producer (P. mirabilis); settings: d9-TMA from 1 mM d9-choline, 5 h, 37° C.; value 10 given when no fit or % TMA remaining at 10 μM higher than 15%; read-out: Average IC50 Whole cell P. mirabilis
Sequence (B4EYG1 entry or part of it): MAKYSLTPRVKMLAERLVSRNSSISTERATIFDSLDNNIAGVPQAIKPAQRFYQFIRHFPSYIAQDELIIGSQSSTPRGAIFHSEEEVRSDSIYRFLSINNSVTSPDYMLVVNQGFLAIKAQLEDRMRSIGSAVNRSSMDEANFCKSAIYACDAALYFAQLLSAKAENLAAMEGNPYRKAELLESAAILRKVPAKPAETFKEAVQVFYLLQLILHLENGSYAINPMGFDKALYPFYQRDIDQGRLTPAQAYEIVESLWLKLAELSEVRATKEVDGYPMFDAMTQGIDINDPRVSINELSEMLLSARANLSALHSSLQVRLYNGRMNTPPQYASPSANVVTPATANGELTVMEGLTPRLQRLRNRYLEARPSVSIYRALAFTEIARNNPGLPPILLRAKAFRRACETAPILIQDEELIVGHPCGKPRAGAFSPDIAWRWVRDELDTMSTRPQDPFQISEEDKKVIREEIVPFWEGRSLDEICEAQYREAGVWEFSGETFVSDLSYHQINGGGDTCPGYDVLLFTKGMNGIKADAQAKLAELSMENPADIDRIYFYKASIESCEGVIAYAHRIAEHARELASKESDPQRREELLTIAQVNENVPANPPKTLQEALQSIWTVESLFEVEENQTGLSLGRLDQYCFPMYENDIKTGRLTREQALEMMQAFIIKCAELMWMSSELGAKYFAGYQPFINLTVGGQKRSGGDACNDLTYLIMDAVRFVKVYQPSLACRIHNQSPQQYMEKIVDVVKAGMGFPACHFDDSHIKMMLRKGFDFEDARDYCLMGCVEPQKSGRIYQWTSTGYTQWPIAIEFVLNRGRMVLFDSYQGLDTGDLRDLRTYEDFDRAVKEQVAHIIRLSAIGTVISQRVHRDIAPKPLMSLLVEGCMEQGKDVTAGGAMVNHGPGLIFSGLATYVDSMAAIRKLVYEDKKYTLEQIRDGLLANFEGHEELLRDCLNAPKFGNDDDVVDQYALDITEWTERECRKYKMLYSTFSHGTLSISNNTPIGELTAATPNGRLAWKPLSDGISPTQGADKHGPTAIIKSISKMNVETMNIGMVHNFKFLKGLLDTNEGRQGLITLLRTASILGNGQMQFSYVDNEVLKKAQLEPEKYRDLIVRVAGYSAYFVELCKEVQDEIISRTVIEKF
Sequence (B4EYG0 entry or part of it, further chain): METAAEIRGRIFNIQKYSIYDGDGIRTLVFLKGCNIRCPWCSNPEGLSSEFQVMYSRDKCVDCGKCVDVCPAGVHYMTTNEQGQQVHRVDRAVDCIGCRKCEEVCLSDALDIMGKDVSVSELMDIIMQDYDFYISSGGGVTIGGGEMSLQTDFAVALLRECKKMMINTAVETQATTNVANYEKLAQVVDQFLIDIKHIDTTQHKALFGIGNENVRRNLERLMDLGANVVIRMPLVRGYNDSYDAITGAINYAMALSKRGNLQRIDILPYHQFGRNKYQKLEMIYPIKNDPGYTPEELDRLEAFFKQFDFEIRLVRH
From the text: In each bacterium, CutC was modified into its activated form by a cognate activating enzyme, CutD (protein EDU36696.1 for C. sporogenes; protein WP_004249185.1 for P. mirabilis). […] Trimethylamine may subsequently be converted by human enzymes such as flavin monooxygenase 3 to trimethylamine N-oxide, which might be associated with negative health consequences in humans.
A compound's ability to inhibit CutC from Proteus mirabilis and C. sporogenes from converting choline into trimethylamine was tested in cells as described. A BHI blood plate was inoculated with a frozen stock of Proteus mirabilis or Clostridium sporogenes under anaerobic conditions. A single colony was isolated from the plate and inoculated into 5 mL BHI supplemented with 1 mM choline under anaerobic conditions. The liquid cultures were grown overnight at 37° C.
To prepare each sample, 300 μL of the saturated culture was then inoculated into a 30 mL dilution blank under anaerobic conditions. 1 mM (trimethyl-d9)-choline and a sufficient amount of a compound to obtain a final concentration of 10 μM were added to the inoculated dilution blank. […] The mixture was incubated at 37° C. for 5 h. […] After centrifugation, the samples were analyzed by LCMS to determine the amount of d9-TMA produced.

SMILES	pIC50
C=CC[N+](C)(C)CCO [Compound 182, (2-hydroxyethyl)dimethyl(prop-2-en-1-yl)azanium Bromide]	5.50
C=CC[N+](C)(C)CC(=C)C(=O)OC [Compound 203, N-allyl-2-(methoxycarbonyl)-N,N-dimethylprop-2-en-1-aminium 2,2,2-trifluoroacetate]	5.76
C#CC[N+](C)(C)Cc1ncno1 [Compound 224]	6.65
C#CC[N+]1(CCO)CCCCC1 [Compound 154, 1-(2-hydroxyethyl)-1-(prop-2-yn-1-yl)piperidin-1-ium Bromide]	≤ 5.00
C[N+](C)(CCO)C(F)F [Compound 193, (difluoromethyl)(2-hydroxyethyl)dimethylazanium]	5.86
C#CC[N+](C)(C)CC(=O)NS(C)(=O)=O [Compound 216, [(methanesulfonylcarbamoyl)methyl]dimethyl(prop-2-yn-1-yl)azanium]	< 5.00
C[N+](C)(CCO)CC1CCC1 [Compound 194, (cyclobutylmethyl)(2-hydroxyethyl)dimethylazanium Bromide]	< 5.00
C[N+]12CCC(O)(CC1)CC2 [Compound 149, 4-hydroxy-1-methylquinuclidin-1-ium]	≤ 5.00
C[N+]1(C)CCOC(O)(C(F)(F)F)C1 (centres unmarked) [Compound 218, 2-hydroxy-4,4-dimethyl-2-(trifluoromethyl)morpholin-4-ium trifluoroacetate]	< 5.00
C#CC[N+]1(CF)CC[C@@H](O)C1 (stereo partly drawn) [Compound 214, (3R)-1-(fluoromethyl)-3-hydroxy-1-(prop-2-yn-1-yl)pyrrolidin-1-ium]	5.41
C#CC[N+](C)(CC#C)CCS(=O)(=O)O [Compound 223, methylbis(prop-2-yn-1-yl)(2-sulfoethyl)azanium]	5.64
C#CC[N+]1(CF)CCC[C@H]1CO (stereo partly drawn) [Compound 205, (2S)-1-(fluoromethyl)-2-(hydroxymethyl)-1-(prop-2-yn-1-yl)pyrrolidin-1-ium Iodide]	5.08
C#CC[N+](C)(C)CC=C [Compound 211, N,N-dimethyl-N-(prop-2-yn-1-yl)prop-2-en-1-aminium 2,2,2-trifluoroacetate]	6.68
C=C(C[N+](C)(C)CC#N)C(=O)OC [Compound 189, N-(cyanomethyl)-2-(methoxycarbonyl)-N,N-dimethylprop-2-en-1-aminium Bromide]	< 5.00
C#CC[N+](C)(C)CC1OC1C (centres unmarked) [Compound 181, dimethyl[(3-methyloxiran-2-yl)methyl](prop-2-yn-1-yl)azanium]	< 5.00
C#CC[N+](C)(C)CCO[C@H]1CO[C@H]2[C@@H]1OC[C@H]2OCC[N+](C)(C)CC#C [Compound 71, N,N′-((((3R,3aR,6S,6aR)-hexahydrofuro[3,2-b]furan-3,6-diyl)bis(oxy))bis(ethane-2,1-diyl))bis(N,N-dimethylprop-2-yn-1-aminium) bistrifluoroacetate]	≤ 5.00
CC[N+](C)(CF)CCO (centres unmarked) [Compound 213, ethyl(fluoromethyl)(2-hydroxyethyl)(methyl)azanium Iodide]	6.74
C#CC[N+](C)(C)Cc1ncco1 [Compound 207, dimethyl[(1,3-oxazol-2-yl)methyl](prop-2-yn-1-yl)azanium Chloride]	6.51
C[N+]1(C)CCOCC1CO (centres unmarked) [Compound 220, 3-(hydroxymethyl)-4,4-dimethylmorpholin-4-ium]	< 5.00
C[N+](C)(C)CC1CC1 [Compound 178, (cyclopropylmethyl)trimethylazanium Iodide]	≤ 5.00
C=C(CO)C[N+](C)(C)C [Compound 167, (3-hydroxy-2-methylidenepropyl)trimethylazanium trifluoroacetate]	≤ 5.00
C#CC[N+](C)(C)C[C@@H](C)C(=O)OC [Compound 174, [(2R)-3-methoxy-2-methyl-3-oxopropyl]dimethyl(prop-2-yn-1-yl)azanium]	6.77
C[N+](C)(CCO)C1COC1 [Compound 219, N-(2-hydroxyethyl)-N,N-dimethyloxetan-3-aminium trifluoroacetate]	< 5.00
C#CC[N+]1(CF)CCCC1 [Compound 187, 1-(fluoromethyl)-1-(prop-2-yn-1-yl)pyrrolidin-1-ium]	6.12

SMILES	pIC50
C#CC[N+](C)(C)CCS(=O)(=O)O [Compound 221, dimethyl(prop-2-yn-1-yl)(2-sulfoethyl)azanium Trifluoroacetate]	< 5.00
C#CC1CCC[N+]1(C)C (centres unmarked) [Compound 226]	6.61
C[N+](C)(CCO)CCO [Compound 157, 2-hydroxy-N-(2-hydroxyethyl)-N,N-dimethylethan-1-aminium Iodide]	≤ 5.00
CCC[N+](C)(CF)CCO (centres unmarked) [Compound 225]	6.20
C[N+](C)(CCO)Cc1ccccc1 [Compound 173, benzyl(2-hydroxyethyl)dimethylazanium]	≤ 5.00
C#CC[N+](C)(CF)CCO (centres unmarked) [Compound 153, N-(fluoromethyl)-N-(2-hydroxyethyl)-N-methylprop-2-yn-1-aminium Iodide]	7.70
C#CC[N+](C)(C)CC1(C(=O)OC)CC1 [Compound 190, N-((1-(methoxycarbonyl)cyclopropyl)methyl)-N,N-dimethylprop-2-yn-1-aminium Bromide]	5.89
C#CC[N+](C)(C)CCCB(O)O [Compound 222, {3-[dimethyl(prop-2-yn-1-yl)azaniumyl]propyl}boronic Acid]	< 5.00
C[N+](C)(C)CC#N [Compound 169, (cyanomethyl)trimethylazanium Iodide]	≤ 5.00
CSCC[N+](C)(C)CF [Compound 229, (fluoromethyl)dimethyl[2-(methylsulfanyl)ethyl]azanium]	< 4.00
C[N+]1(CF)CCCC[C@@H]1CO (stereo partly drawn) [Compound 161, (2R)-1-(fluoromethyl)-2-(hydroxymethyl)-1-methylpiperidin-1-ium Iodide]	≤ 5.00
C[N+]12CCC(CC1)[C@H](O)C2 [Compound 148, (1s,4s)-3-hydroxy-1-methylquinuclidin-1-ium]	≤ 5.00
C=C(C[N+](C)(C)CF)C(=O)O [Compound 171, (2-carboxy-2-methylideneethyl)(fluoromethyl)dimethylazanium Iodide]	≤ 5.00
C#CC[N+](C)(C)CC(=C)F [Compound 209, 2-fluoro-N,N-dimethyl-N-(prop-2-yn-1-yl)prop-2-en-1-aminium 2,2,2-trifluoroacetate]	5.17
C#CC[N+](C)(C)CC(=O)O[C@H]1CO[C@H]2[C@@H]1OC[C@H]2OC(=O)C[N+](C)(C)CC#C [Compound 69, N,N′-((((3R,3aR,6S,6aR)-hexahydrofuro[3,2-b]furan-3,6-diyl)bis(oxy))bis(2-oxoethane-2,1-diyl))bis(N,N-dimethylprop-2-yn-1-aminium) bistrifluoroacetate]	≤ 5.00
C[N+](C)(CCO)C1CCC1 [Compound 199, N-(2-hydroxyethyl)-N,N-dimethylcyclobutanaminium]	< 5.00
C[N+](CF)(CCO)C1CC1 (centres unmarked) [Compound 172, N-(fluoromethyl)-N-(2-hydroxyethyl)-N-methylcyclopropanaminium Iodide]	≤ 5.00
C#CC[N+](C)(C)CC#C [Compound 165, N,N-dimethyl-N-(prop-2-yn-1-yl)prop-2-yn-1-aminium Bromide]	5.67
C#CC[N+](C)(C)CC(C)=O [Compound 197, dimethyl(2-oxopropyl)(prop-2-yn-1-yl)azanium Bromide]	5.30
C#CC[N+](C)(C)C[C@H](C)C(=O)O [Compound 166, (S)—N-(2-carboxypropyl)-N,N-dimethylprop-2-yn-1-aminium Chloride]	5.90
C#CC[N+](C)(C)CCOCCO [Compound 191, [2-(2-hydroxyethoxy)ethyl]dimethyl(prop-2-yn-1-yl)azanium]	5.66
C#CC[N+]1(CC#C)CCCC1 [Compound 188, 1,1-bis(prop-2-yn-1-yl)pyrrolidin-1-ium Bromidebromide]	< 5.00
C#CC[N+](C)(C)CCC [Compound 204, dimethyl(prop-2-yn-1-yl)propylazanium Iodide]	6.18

same assay, conditions: read-out: Average IC50 Whole cell P. mirabilis; d9-TMA from 1 mM d9-choline, 5 h, 37° C.; value 10 given when no fit or % TMA remaining at 10 μM higher than 15%

SMILES	pIC50
C[N+](C)(C)CCCl [Compound 180]	< 5.00
C#CC[N+](C)(C)CCP(=O)(O)O [Compound 210, {2-[dimethyl(prop-2-yn-1-yl)azaniumyl]ethyl}phosphonic Acid]	< 5.00
C#CC[N+](C)(C)CC[PH](=O)O [Compound 227, {2-[dimethyl(prop-2-yn-1-yl)azaniumyl]ethyl}phosphinic Acid]	< 5.00
C[N+](C)(C)CCC[PH](=O)O [Compound 147, 3-(hydroxyhydrophosphoryl)-N,N,N-trimethylpropan-1-aminium Chloridechloridechloridechloridechloride]	≤ 5.00
C[N+](C)(CCO)CCF [Compound 186, (2-fluoroethyl)(2-hydroxyethyl)dimethylazanium]	< 5.00
C#CC[N+](C)(C)CCP(=O)(OCC)OCC [Compound 202, diethyl {2-[dimethyl(prop-2-yn-1-yl)azaniumyl]ethyl}phosphonate Bromide]	6.62
